Series [1] relates to dnak deletion strain BB205. Description: Growth tests in dnak deletion strain BB205 at 37°C. The format is cell-based, E. coli. The following applies: serial dilutions spotted on LB plates, 20 μM IPTG, one overnight.
In another series the test system is SBD. As to conditions: cited from earlier work.
The test system of series [2] is DnaK Trp102 (NBD-SBD allosteric coupling). As to conditions: cited from earlier work.
A further series concerns DnaK ATPase. As to conditions: ref [16],[28]; cited from earlier work.

On to “D100L: DnaK mutated individually at Asp100”, for which the “in vivo DnaK function / activity in growth tests” value (“in vivo DnaK function / activity” below) in series [1] was “moderate growth phenotype”. `Nc1ncnc2c1ncn2[C@@H]1O[C@H](COP(=O)(O)OP(=O)(O)OP(=O)(O)O)[C@@H](O)[C@H]1O` [ATP]: in the series on SBD (Hsp70 (mainly DnaK)), the “Binding and release rates of substrates upon ATP binding” value was “greatly accelerated, more for release than binding”. In addition, in the series with SBD (ref [19],[20]), the “Reduction of affinity of SBD for its substrates upon ATP binding” value is reported as “two to three”. The “ATP-induced change of tryptophan fluorescence” value in series [2] (full-length DnaK, relative to apo and ADP-bound forms, ref [16]) was “blue-shift and fluorescence quenching”. With G461P, the “in vivo DnaK function / activity” value in series [1] was “compromised in vivo DnaK function modestly”. Turning to “T199A: well-characterized mutation that abolishes ATPase activity but maintains allosteric coupling”, the “ATPase activity of mutant” value with DnaK ATPase is “abolishes ATPase activity”. Also, the “Allosteric coupling of mutant” value in series [2] (ref [16],[28]) is reported as “maintains allosteric coupling”.

In the case of G468P, the “in vivo DnaK function / activity” value in series [1] is “compromised in vivo DnaK function modestly”.

Values taken from publication PMC3772632 (Nature structural & molecular biology, 2013).
